Patent US7452865B2, “Antagonistic analogs of GH RH (2003)” (The Administrare's of the Tulane Educational Fund, priority 2004, dated 2008)
Marks after values point to notes of the source that are not given here. Square brackets hold non-standard residues; d marks the D form. Peptide text beside a SMILES is read from it. * marks the point of attachment. Phe(4-Cl) = N[C@@H](Cc1ccc(Cl)cc1)C(=O)O; hArg = N=C(N)NCCCC[C@H](N)C(=O)O; Nle = CCCC[C@H](N)C(=O)O; Abu = CC[C@H](N)C(=O)O; PhAc = O=C(Cc1ccccc1)*

Experiments:
[1] = tested on: PC-3 human prostate cancer xenografts; assay: PC-3 xenografts in nude mice, Experiment 3: tumor growth; assay type: in vivo
Outline: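 Male nude mice bearing s.c. PC-3 tumour fragments on both flanks (~65 mm^3 at start), 8–9 per group, given daily s.c. injections at 10 μg/day for 28 days vs vehicle. Tumour volume measured twice weekly; at day 28 tumours weighed and serum IGF-I measured by RIA; ANOVA with Fisher test, means±S.E.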

IGF-II = assay: PC-3 xenografts, Experiment 1: tumor IGF-II (RIA); assay type: in vivo, nude mice; settings: 10 μg/day s.c., 28 days
Description: (§1) For the measurement of GH and IGF-I levels in the serum, as well as IGF-I and IGF-II concentrations in the cytosol fraction of tumors, blood samples and tumor samples were collected and processed as described (Braczkowski R, Schally A V, Plonowski A, Varga J L, Groot K, Krupa M, Armatis P, Cancer 95: 1735-1745, 2002), hereby incorporated by reference. Briefly, blood samples are centrifuged to separate the serum, tumors are homogenized and centrifuged to separate the cytosol fraction. Serum GH is then measured by the double-antibody RIA method. Before measurement by RIA, IGF-I and IGF-II are extracted from serum and cytosol fractions using an acid-ethanol cryoprecipitation method that eliminates most of the IGF binding proteins, which can interfere with the RIA. IGF-I concentration is measured by RIA using IGF-I as a standard and goat anti-IGF-I antibody (both from DSL Inc., Webster, Tex.). IGF-II concentration is measured by RIA using human recombinant IGF-II (Bachem) as a standard and anti-IGF-II monoclonal antibody (Amano International Enzyme, Troy, Va.).
(§2) Male nude mice were implanted s.c. with 3 mm^3 pieces of PC-3 human hormone-independent prostate cancer tissue on both flanks. When tumors reached a volume of approx. 50 mm^3, the mice were divided into 5 experimental groups with 7 to 8 animals in each group and received single daily injections for 28 days as follows: 1. Control (vehicle solution); 2. JV-1-38 (10 μg/day s.c.); 3 Peptide 31 (10 μg/day s.c.); 4. Peptide 67 (10 μg/day s.c.); 5. Peptide 62 (10 μg/day s.c.). Tumor volumes were measured twice a week. The experiment was ended on day 29 by sacrificing the mice under Isoflurane anesthesia. Resulting tumors were cleaned, weighed, and snap-frozen until further analyses. Trunk blood was collected from the abdominal aorta and serum was separated for RIA measurement of IGF-I. Statistical analyses of the measurement results were done by two-tailed t-test; data are presented as the means±S.E.

[2] = tested on: hGH-RH(1-29)NH2 induced GH release; assay: Inhibition of GH release in superfused rat pituitary system; assay type: cell-based; settings: antagonist 30 nM
Outline: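 Dispersed rat pituitary cells in superfusion were preincubated 9 min with analog at various concentrations, then stimulated with 1 nM hGH-RH(1-29)NH2 for 3 min, repeated at 30, 60, 90, 120 min to gauge duration. GH measured by double-antibody RIA; net integrated responses expressed as percent of the initial 1 nM GH-RH response.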

IGF-I [3] = assay: PC-3 xenografts, Experiment 2: serum IGF-I (RIA); assay type: in vivo, nude mice; settings: 28 days
Description: as §1, §2
(§3) Experiment 2 was similar to Experiment 1, with the difference that Experiment 2 was started when PC-3 tumors had grown to approximately 30 mm^3 in volume. At this time, the animals were divided into 8 experimental groups with 8 animals in each group, and received single daily injections for 28 days as follows. 1. Control (vehicle solution); 2. JV-1-38 (10 μg/day s.c.); 3. Peptide 46 (5 μg/day: s.c.); 4. Peptide 77 (5 μg/day s.c); 5. Peptide 76 (5 μg/day s.c.); 6. Peptide 70 (5 μg/day s.c.); 7 Peptide 79 (5 μg/day s.c.); 8. Peptide 80 (5 μg/day s.c.). Further details of Experiment 2 are the same as for Experiment 1.

[4] = tested on: PC-3 human prostate cancer xenografts; assay: PC-3 xenografts in nude mice, Experiment 1: tumor growth; assay type: in vivo
Experimental: as §2

IGF-I [5] = assay: PC-3 xenografts, Experiment 1: serum IGF-I (RIA); assay type: in vivo, nude mice; settings: 10 μg/day s.c., 28 days
Description: as §1, §2

[6] = tested on: PC-3 human prostate cancer xenografts; assay: PC-3 xenografts in nude mice, Experiment 2: tumor growth; assay type: in vivo; settings: for Tumor volume (mm^3) Initial: at start of treatment
Experimental: as §2, §3

[7] = tested on: PC-3 human prostate cancer xenografts; assay: PC-3 xenografts in nude mice, Experiment 4: tumor growth; assay type: in vivo
Experimental: (§4) Male nude mice were implanted s.c. with 3 mm^3 pieces of PC-3 human hormone-independent prostate cancer tissue on both flanks. When tumors reached a volume of approximately 65 mm^3, the mice were divided into 7 experimental groups with 8 to 9 animals in each group and received single daily injections for 28 days as follows: 1. Control (vehicle solution); 2. JV-1-38 (10 μg/day s.c.); 3. Peptide 35 (10 μg/day s.c.); 4. Peptide 36 (10 μg/day s.c.); 5. Peptide 37 (10 μd/day s.c.); 6. Peptide 39 (10 μg/day s.c.); 7. Peptide 41 (10 μg/day s.c.). Tumor volumes were measured twice a week. The experiment was ended on day 28 by sacrificing the mice under Isofurane anesthesia. Resulting tumors were cleaned, weighed, and snapfrozen until further analyses. Trunk blood was collected from the abdominal aorta and serum was separated for RIA measurement of IGF-I. Statistical analyses of the measurement results were done by ANOVA followed by Fisher test; data are presented as the means±S.E.
(§5) All experimental details of Experiment 4 are the same as for Experiment 3, with the following difference. When tumors reached a volume of approximately 55 mm^3, the mice were divided into 5 experimental groups with 8 to 9 animals in each group and received single daily injections for 28 days as follows: 1. Control (vehicle solution); 2. Peptide 80 (5 μg/day s.c.); 3. Peptide 86 (5 μg/day s.c.); 4. Peptide 95 (5 μg/day s.c.); 5. Peptide 96 (5 μg/day s.c.). Further details of Experiment 4 are the same as for Experiment 3.

[8] = tested on: GH-RH receptor isoforms on membrane fractions of human PC-3 prostate tumors; assay type: binding; settings: general statement
Outline: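 Competitive displacement of [^125I]JV-1-42 from crude membranes of human PC-3 prostate tumours grown as nude-mouse xenografts, with unlabelled peptides at 10^−12 to 10^−6 M. Bound radioactivity in the centrifuged pellet gamma-counted; Ki from Munson–Rodbard analysis. Relative affinity = Ki of reference peptide (JV-1-36 or JV-1-38) / Ki of test antagonist.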

IGF-I [9] = assay: PC-3 xenografts, Experiment 4: serum IGF-I (RIA); assay type: in vivo, nude mice; settings: 5 μg/day s.c., 28 days
Description: as §1, §4, §5

[10] = 10 μg/day s.c., 28 days, vs control
[11] = 5 μg/day s.c., 28 days, vs control

CCCC[C@H](NC(=O)[C@@H](NC(=O)[C@H](CC(=O)O)NC(=O)[C@H](CCC(N)=O)NC(=O)[C@H](CC(C)C)NC(=O)[C@H](CC(C)C)NC(=O)[C@H](CCCCN)NC(=O)[C@H](CCCNC(=N)N)NC(=O)[C@H](C)NC(=O)[C@H](CO)NC(=O)[C@H](CC(C)C)NC(=O)[C@H](CCC(N)=O)NC(=O)[C@H](CC)NC(=O)[C@H](CC(C)C)NC(=O)[C@@H](NC(=O)[C@H](CCCCN)NC(=O)[C@H](CCCNC(=N)N)NC(=O)[C@H](Cc1ccc(OC)cc1)NC(=O)[C@H](CCCCNC(=N)N)NC(=O)[C@H](CC(N)=O)NC(=O)[C@@H](NC(=O)[C@H](Cc1ccc(Cl)cc1)NC(=O)[C@@H](NC(=O)[C@H](C)NC(=O)[C@H](CC(=O)O)NC(=O)[C@@H](CCCNC(=N)N)NC(=O)[C@H](Cc1ccc(O)cc1)NC(=O)Cc1ccccc1)[C@@H](C)CC)[C@@H](C)O)C(C)C)[C@@H](C)CC)C(=O)N[C@H](CCCNC(=N)N)C(=O)N[C@@H](CCCCNC(=N)N)C(N)=O [JV-1-38, reference compound] (PhAc-Y[dR]DAI[Phe(4-Cl)]TN[hArg]Y(Me)RKVL[Abu]QLSARKLLQDI[Nle][dR][hArg]-NH2; N-terminus and C-terminus assumed)
Tumor volume (mm^3) Final ([1]; 10 μg/day s.c., 28 days): 276 ± 48.7** mm^3
Tumor volume doubling time ([1]; 10 μg/day s.c., 28 days): 18.2 ± 1.84 days
Tumor weight ([1]; 10 μg/day s.c., 28 days): 386 ± 62.9 mg
Tumor volume Final (% inhibition) [1, 10]: (66%)
Tumor weight (% inhibition) [1, 10]: (45%)
Tumor volume (mm^3) Initial ([1]; at start of treatment): 68.3 ± 8.08 mm^3
Tumor IGF-II (pg/mg protein) (IGF-II): 208 ± 43.3 pg/mg protein
Tumor IGF-II (% inhibition) (IGF-II; vs control): (5%)
GH response (% of control) 0 min ([2]; 1 nM hGH-RH(1-29)NH2 at 0 min): 59 % of control
GH response (% of control) 30 min ([2]; 1 nM hGH-RH(1-29)NH2 at 30 min): 32 % of control
GH response (% of control) 60 min ([2]; 1 nM hGH-RH(1-29)NH2 at 60 min): 28 % of control
GH response (% of control) 90 min ([2]; 1 nM hGH-RH(1-29)NH2 at 90 min): 34 % of control
GH response (% of control) 120 min ([2]; 1 nM hGH-RH(1-29)NH2 at 120 min): 31 % of control
Serum IGF-I (IGF-I [3]; 10 μg/day s.c.): 293 ± 28.0 ng/mL
Tumor volume (mm^3) Final ([4]; 10 μg/day s.c., 28 days): 291 ± 80.4 mm^3
Tumor volume doubling time ([4]; 10 μg/day s.c., 28 days): 12.3 ± 1.04 days
Tumor weight ([4]; 10 μg/day s.c., 28 days): 239 ± 58.0 mg
Tumor volume Final (% inhibition) [4, 10]: (42%)
Tumor weight (% inhibition) [4, 10]: (37%)
Tumor volume (mm^3) Initial ([4]; at start of treatment): 49.2 ± 8.37 mm^3
Serum IGF-I (IGF-I [5]): 147 ± 8.49 ng/mL
Serum IGF-I (% inhibition) (IGF-I [5]; vs control): (1%)
Tumor volume (mm^3) Initial ([6]; 10 μg/day group): 29.3 ± 3.8 mm^3
Tumor volume (mm^3) Final ([6]; 10 μg/day s.c., 28 days): 351 ± 72.9 mm^3
Tumor volume doubling time ([6]; 10 μg/day s.c., 28 days): 8.7 ± 0.7 days
Tumor weight ([6]; 10 μg/day s.c., 28 days): 254 ± 52.0 mg
Tumor volume Final (% inhibition) [6, 10]: (0%)

[CH3(CH2)6CO-Tyr^1, D-Arg^2, Phe(pCl)^6, Ala^8, His^9, Tyr(Et)^10, His^11, Abu^15, Nle^27, D-Arg^28, Har^29]hGH-RH(1-29)NH2 [Peptide 80]
Tumor volume (mm^3) Final ([7]; 5 μg/day s.c., 28 days): 398 ± 68.7* mm^3
Tumor volume doubling time ([7]; 5 μg/day s.c., 28 days): 10.7 ± 1.28 days
Tumor weight ([7]; 5 μg/day s.c., 28 days): 752 ± 150 mg
Tumor volume Final (% inhibition) [7, 11]: 68%
Tumor weight (% inhibition) [7, 11]: 48%
Tumor volume (mm^3) Initial ([7]; at start of treatment): 53.2 ± 10.1 mm^3
Serum IGF-I (IGF-I [3]; 5 μg/day s.c.): 152 ± 7.83 ng/mL
Serum IGF-I (% inhibition) (IGF-I [3]; 5 μg/day s.c., vs control): 42%
binding affinities to the tumoral receptors for GH-RH (in words) [8]: extremely high binding affinities
Serum IGF-I (IGF-I [9]): 136 ± 15.3 ng/mL
Serum IGF-I (% inhibition) (IGF-I [9]; vs control): 18%
Tumor volume (mm^3) Initial ([6]; 5 μg/day groups): 24.8 ± 2.2 mm^3
Tumor volume (mm^3) Final ([6]; 5 μg/day s.c., 28 days): 128 ± 38.9*# mm^3
Tumor volume doubling time ([6]; 5 μg/day s.c., 28 days): 16.7 ± 4.3 days
Tumor weight ([6]; 5 μg/day s.c., 28 days): 137 ± 46.1 mg
Tumor volume Final (% inhibition) [6, 11]: (64%)
Tumor weight (% inhibition) [6, 11]: (52%)
